Source: US9216247B2, “Buffered compositions for dialysis” (Advanced Renal Technologies, priority 1998, dated 2015)
Like-named read-outs stand apart in the source and are kept apart here.

Experiments:
[1] = test system: coagulation behavior of blood; assay: clotting time of patients dialysed with citric acid dialysate; format: in vivo; settings: 2.4 mEq/L of citric acid in dialysate; beyond that achieved with heparin

Row | increase in patient's clotting time [1] | SMILES | buffering action (bicarbonate concentrate solutions of 8.1<pH<8.3) | buffering action (bicarbonate concentrate solutions with a pH of <8.0)
1 | – | CC(=O)[O-].[Na+] [sodium acetate] | evident | not apparent
2 | no measurable increase | O=C(O)CC(O)(CC(=O)O)C(=O)O [citric acid, Citric acid] | – | –
